Measurements taken from ChEMBL document CHEMBL1909046, “DrugMatrix in vitro pharmacology data”.

Legend:
[1] = molecular target: Aldo-keto reductase family 1 member B1 (Rattus norvegicus, UniProt P07943); assay: biochemical; assay type: tissue-based, Lens of camera-type eye;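 further: inhibition of aldose reductase enzyme activity, measured with DL-glyceraldehyde as the substrate; in other assays of this panel Not Active means under 50% inhibition at 10 µM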
[2] = molecular target: T1, Alpha-2A adrenergic receptor (Homo sapiens, UniProt P08913); assay type: cell membranes, Sf9, Membrane; further: in other assays of this panel Not Active means under 50% inhibition at 10 µM
T1 sequence (P08913 whole entry): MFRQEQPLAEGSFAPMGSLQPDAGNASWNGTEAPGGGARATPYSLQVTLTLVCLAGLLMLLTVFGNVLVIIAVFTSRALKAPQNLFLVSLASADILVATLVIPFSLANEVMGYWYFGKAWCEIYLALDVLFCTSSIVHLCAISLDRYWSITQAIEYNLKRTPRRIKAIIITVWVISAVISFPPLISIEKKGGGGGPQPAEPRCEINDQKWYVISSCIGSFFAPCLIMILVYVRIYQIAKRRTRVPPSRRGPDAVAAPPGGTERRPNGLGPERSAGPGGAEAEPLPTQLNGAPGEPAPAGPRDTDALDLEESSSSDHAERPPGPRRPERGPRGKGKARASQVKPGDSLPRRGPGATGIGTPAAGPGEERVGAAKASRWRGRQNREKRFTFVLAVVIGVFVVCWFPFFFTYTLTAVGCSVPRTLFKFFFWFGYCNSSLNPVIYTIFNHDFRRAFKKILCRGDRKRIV

[3] = molecular target: Acetylcholinesterase (Homo sapiens, UniProt P22303); assay: DRUGMATRIX: Acetylcholinesterase enzyme inhibition (substrate: acetylthiocholine); assay type: cell-based, HEK293; conditions: Not Active = under 50% inhibition at 10 µM
Sequence of Acetylcholinesterase (P22303 whole entry): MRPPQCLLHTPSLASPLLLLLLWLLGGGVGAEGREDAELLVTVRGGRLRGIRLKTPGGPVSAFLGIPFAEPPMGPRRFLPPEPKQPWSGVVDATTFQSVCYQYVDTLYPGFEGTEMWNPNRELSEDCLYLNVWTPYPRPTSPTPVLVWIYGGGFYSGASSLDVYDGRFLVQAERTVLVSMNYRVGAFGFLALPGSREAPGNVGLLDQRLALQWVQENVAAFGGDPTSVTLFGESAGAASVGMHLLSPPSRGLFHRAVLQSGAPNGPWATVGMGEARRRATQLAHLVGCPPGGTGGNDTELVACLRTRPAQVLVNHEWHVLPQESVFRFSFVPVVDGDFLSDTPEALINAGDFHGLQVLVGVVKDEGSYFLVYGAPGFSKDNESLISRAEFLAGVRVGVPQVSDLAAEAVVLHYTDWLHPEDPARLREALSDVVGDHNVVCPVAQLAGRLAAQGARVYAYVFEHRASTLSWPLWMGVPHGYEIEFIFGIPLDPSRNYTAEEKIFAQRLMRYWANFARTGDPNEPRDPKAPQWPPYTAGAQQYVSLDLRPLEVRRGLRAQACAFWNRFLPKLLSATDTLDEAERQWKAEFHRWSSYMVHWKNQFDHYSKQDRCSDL

[4] = DRUGMATRIX: Interleukin IL-1 radioligand binding (ligand: [125I] interleukin 1beta); assay type: cell membranes, Membrane; conditions: nih3t3; Not Active = under 50% inhibition at 10 µM
[5] = molecular target: T2, Interstitial collagenase (Homo sapiens, UniProt P03956); assay: biochemical; assay type: tissue-based, Rheumatoid synovial fibroblasts;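 further: MMP-1 enzyme inhibition assay using a peptide substrate; in other assays of this panel Not Active means under 50% inhibition at 10 µM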
T2 sequence (P03956 whole entry): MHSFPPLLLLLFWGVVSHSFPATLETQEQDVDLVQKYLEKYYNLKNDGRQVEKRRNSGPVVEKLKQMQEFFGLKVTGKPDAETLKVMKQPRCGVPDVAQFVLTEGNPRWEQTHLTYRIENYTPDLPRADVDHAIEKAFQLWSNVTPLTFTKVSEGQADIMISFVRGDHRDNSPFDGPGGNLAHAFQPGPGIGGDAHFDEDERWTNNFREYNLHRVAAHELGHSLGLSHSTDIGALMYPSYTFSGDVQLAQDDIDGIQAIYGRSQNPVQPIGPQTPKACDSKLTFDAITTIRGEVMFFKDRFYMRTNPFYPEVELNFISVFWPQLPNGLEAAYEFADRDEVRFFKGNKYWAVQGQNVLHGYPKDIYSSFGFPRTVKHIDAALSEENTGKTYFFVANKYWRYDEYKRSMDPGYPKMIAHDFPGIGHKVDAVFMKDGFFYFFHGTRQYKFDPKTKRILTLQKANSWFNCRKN

Row | Structure (SMILES) | IC50 [1] | IC50 ([2]; sf9) | IC50 ([3]; hek293) | IC50 [4] | Ki [4] | IC50 [5] | IC50 ([2]; read-out: IC50) [nM] | Ki ([2]; read-out: Ki) [nM] | IC50 ([3]; read-out: IC50) [nM]
1 | CCCN(CCC)C(=O)C(CCC(=O)O)NC(=O)c1ccccc1 (stereo not drawn) [PROGLUMIDE] | Not Active | Not Active | Not Active | Not Active | Not Active | Not Active |  |  | 
2 | CCCC(CCC)C(=O)O [VALPROIC ACID] | Not Active | Not Active | Not Active | Not Active | Not Active | Not Active |  |  | 
3 | Cc1ccccc1C(=O)N1CCC(Cc2ccccc2)CC1 | Not Active | Not Active | Not Active | Not Active | Not Active | Not Active |  |  | 
4 | CCCC(=O)Nc1ccc(OCC(O)CNC(C)C)c(C(C)=O)c1 (stereo not drawn) [ACEBUTOLOL] | Not Active | Not Active | Not Active | Not Active | Not Active | Not Active |  |  | 
5 | OC(CCN1CCCCC1)(c1ccccc1)C1CCCCC1 (stereo not drawn) [TRIHEXYPHENIDYL] | Not Active | Not Active | Not Active | Not Active | Not Active | Not Active |  |  | 
6 | Cc1ccc(S(=O)(=O)NC(=O)NN2CC3CCCC3C2)cc1 (stereo not drawn) [GLICLAZIDE] | Not Active | Not Active | Not Active | Not Active | Not Active | Not Active |  |  | 
7 | N=C(N)NC(=O)c1nc(Cl)c(N)nc1N [AMILORIDE] | Not Active | Not Active | Not Active | Not Active | Not Active | Not Active |  |  | 
8 | CC(C)(Oc1ccc(C2CCCc3ccccc32)cc1)C(=O)O (stereo not drawn) [NAFENOPIN] | Not Active | Not Active | Not Active | Not Active | Not Active | Not Active |  |  | 
9 | Cc1cc2cc3c(C)cc(=O)oc3c(C)c2o1 [TRIOXSALEN] | Not Active | Not Active | Not Active | Not Active | Not Active | Not Active |  |  | 
10 | Oc1ccc(OCc2ccccc2)cc1 [MONOBENZONE] | Not Active | Not Active | Not Active | Not Active | Not Active | Not Active |  |  | 
11 | O=C1CC2(CCCC2)CC(=O)N1CCCCN1CCN(c2ncccn2)CC1 [BUSPIRONE] | Not Active | Not Active | Not Active | Not Active | Not Active | Not Active |  |  | 
12 | COc1cccc2c1C(=O)c1c(O)c3c(c(O)c1C2=O)C[C@@](O)(C(=O)CO)C[C@@H]3O[C@H]1C[C@H](N)[C@@H](O)[C@H](C)O1 [EPIRUBICIN] | Not Active | Not Active | Not Active | Not Active | Not Active | Not Active |  |  | 
13 | C#C[C@]1(O)CC[C@H]2[C@@H]3CCc4cc(OC)ccc4[C@H]3CC[C@@]21C [MESTRANOL] | Not Active | Not Active | Not Active | Not Active | Not Active | Not Active |  |  | 
14 | CN(C)c1ccc(C(=C2C=CC(=[N+](C)C)C=C2)c2ccc(N(C)C)cc2)cc1.[Cl-] [GENTIAN VIOLET] | Not Active |  |  | Not Active | Not Active | Not Active | 536 | 201 | 5850
15 | CC(=O)Nc1ccc(O)cc1 [ACETAMINOPHEN] | Not Active | Not Active | Not Active | Not Active | Not Active | Not Active |  |  | 
16 | CCCCN1CCCCC1C(=O)Nc1c(C)cccc1C.Cl (stereo not drawn) [BUPIVACAINE HYDROCHLORIDE] | Not Active | Not Active | Not Active | Not Active | Not Active | Not Active |  |  | 
17 | Nc1ccn([C@@H]2CS[C@H](CO)O2)c(=O)n1 [LAMIVUDINE] | Not Active | Not Active | Not Active | Not Active | Not Active | Not Active |  |  | 
